Data reported in US10350271B2, “Lipidated peptides for lowering blood glucose” (USTAV ORGANICKE CHEMIE A BIOCHEMIE AKADEMIE VED CR, V.V.I., priority 2014, dated 2019).

How the values were obtained:
C57BL/6 mice = assay: IPGTT after acute administration in lean mice; type: in vivo; conditions: lean C57BL/6 mice, 5 mg/kg SC, vs saline
Description: IPGTT was performed in overnight fasted male C57BL/6 mice.
Intraperitoneal glucose tolerance test (IPGTT) was performed in overnight fasted male C57BL/6 mice (AnLab, Praha, Czech Republic) at age of 12 weeks. […] 15 min later, 2 g/kg glucose solution was administered IP. Blood glucose was then measured at 15, 30, 60, 120 min from glucose injection using a glucometer (Glucocard, Arkray, Kyoto, Japan).
IPGTT was performed in overnight fasted male C57BL/6 mice, Blood glucose levels were measured at the beginning and after subcutaneous (SC—beneath the skin) administration of palm-PrRP31 (5 mg/kg SC) or saline (n=7) at time 30, 60, 90 and 120 min post injection. […] Regarding the error bars in the graphs *P<0.05, **P<0.01. IPGTT glucose levels were lower in mice given analog 43 instead of saline, particularly early in the experiment. Total area under the curve was also clearly lower in analog 43 mice.

Wistar rats = assay: IPGTT after acute administration in lean rats; type: in vivo; conditions: fasted male Wistar rats, 5 mg/kg, vs saline
Description: IPGTT was performed in overnight fasted male Wistar rats.
IPGTT was performed in overnight fasted male Wistar rats (Antab, Praha, Czech Republic) at age of 14 weeks. […] 15 min later, 2 g/kg glucose solution was administered IP. Blood glucose was then measured at 15, 30, 60, and 120 min from glucose injection.
FIG. 4 illustrates a plot of glucose levels after acute administration of palm-PrRP31 in rats. IPGTT was performed in overnight fasted male Wistar rats.

[1] = system: obese diabetic monosodium-glutamate (MSG) mice; assay: IPGTT after 10 days administration to obese diabetic MSG mice; type: in vivo; conditions: 5 mg/kg SC twice a day for 10 days, vs saline
Description: Mice were subjected to a 10-day food intake experiment. […] After 10 days of treatment, mice were fasted overnight and IPGTT was performed. After initial blood glucose measurement, 2 g/kg glucose solution was administered intraperitoneally (IP).
Obese mice were created using MSG. L-glutamic acid sodium salt hydrate (Sigma, St. Louis, USA) was subcutaneously (SC) administered to newborn male mice, at a dose of 4 mg/g body weight, daily from postnatal days 2 to 8 to induce obesity. The MSG treated mice used for experiments were 24 weeks old. Age related mice were used as controls. Obese and control mice were placed into separate cages with free access to food and water. The following week, mice were subjected to a 10-day food intake experiment. […] Consumption of the St-1 diet and the body weight of the mice were simultaneously followed. After 10 days of treatment, mice were fasted overnight and IPGTT was performed. After initial blood glucose measurement, 2 g/kg glucose solution was administered IP.
Blood glucose was then measured at 15, 30, 60, 120 and 180 min post injection as described above.

[2] = target: T1, human PrRP receptor GPR10 (Homo sapiens, UniProt P49683); assay: Competitive binding in CHO cells transfected with human GPR10 (human 125I-PrRP31)
T1 construct: host or cells: CHO cells
T1 sequence (P49683 1-370): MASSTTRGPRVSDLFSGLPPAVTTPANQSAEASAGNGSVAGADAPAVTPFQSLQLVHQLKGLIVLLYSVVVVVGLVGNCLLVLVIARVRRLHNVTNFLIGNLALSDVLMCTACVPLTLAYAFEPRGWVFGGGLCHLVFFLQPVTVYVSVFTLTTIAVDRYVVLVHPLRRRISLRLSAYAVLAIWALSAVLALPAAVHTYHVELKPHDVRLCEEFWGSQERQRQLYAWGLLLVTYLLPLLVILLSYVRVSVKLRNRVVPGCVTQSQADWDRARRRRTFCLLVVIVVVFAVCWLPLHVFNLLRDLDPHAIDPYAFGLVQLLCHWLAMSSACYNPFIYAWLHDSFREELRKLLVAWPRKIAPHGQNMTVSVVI
Summary of the method: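 GPR10-transfected CHO cells (40-80 thousand/well) incubated 60 min at room temperature with 5×10^-11 mol·l^-1 human 125I-PrRP31 and unlabeled analog at 10^-11 to 10^-4 mol·l^-1 in Tris binding buffer pH 7.4. Cells solubilized in 0.1 mol/l NaOH, γ-counted; one-site nonlinear regression fit.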

diabetic db/db mice = assay: IPGTT after 14 days administration to diabetic db/db mice; type: in vivo; conditions: 5 mg/kg SC twice a day for 14 days, vs saline
Description: Then, mice were fasted overnight and IPGTT was performed. After initial blood glucose measurement, 2 g/kg glucose solution was administered IP and glucose followed every hour for 7 hours. Glucose level is shown at the end of the experiment (420 min).
Db/db male mice and their respective controls were acclimatized after arrival, housed 2-3 mice per cage, and used in the experiment at age 11-12 weeks. Mice had free access to food and water, and were subjected to a 14-day experiment. […] The body weight of the mice was followed simultaneously. Following 14 days of treatment, mice were fasted overnight and IPGTT was performed. After initial blood glucose measurement, 2 g/kg glucose solution was administered IP, and glucose levels were measured every hour for 7 hours.

CCCCCCCCCCCCCCCC(=O)N[C@@H](CO)C(=O)N[C@@H](CCCNC(=N)N)C(=O)N[C@H](C(=O)N[C@@H](Cc1c[nH]cn1)C(=O)N[C@@H](CCCNC(=N)N)C(=O)N[C@@H](Cc1c[nH]cn1)C(=O)N[C@@H](CO)C(=O)N[C@@H](CCSC)C(=O)N[C@@H](CCC(=O)O)C(=O)N[C@H](C(=O)N[C@@H](CCCNC(=N)N)C(=O)N[C@H](C(=O)N1CCC[C@H]1C(=O)N[C@@H](CC(=O)O)C(=O)N[C@H](C(=O)N[C@@H](CC(N)=O)C(=O)N1CCC[C@H]1C(=O)N[C@@H](C)C(=O)N[C@@H](Cc1c[nH]c2ccccc12)C(=O)N[C@@H](Cc1ccc(O)cc1)C(=O)N[C@@H](C)C(=O)N[C@@H](CO)C(=O)N[C@@H](CCCNC(=N)N)C(=O)NCC(=O)N[C@H](C(=O)N[C@@H](CCCNC(=N)N)C(=O)N1CCC[C@H]1C(=O)N[C@H](C(=O)NCC(=O)N[C@@H](CCCNC(=N)N)C(=O)N[C@@H](Cc1ccccc1)C(N)=O)C(C)C)[C@@H](C)CC)[C@@H](C)CC)[C@@H](C)O)[C@@H](C)CC)[C@@H](C)O [Analog 43]
IPGTT glucose levels (C57BL/6 mice): lower | IPGTT total area under the curve (C57BL/6 mice): clearly lower | Large spike in blood glucose in IPGTT (Wistar rats): did not | IPGTT area under the curve through 180 min [1]: substantially lower | IPGTT blood glucose levels [1]: lower | % of PrRP31, GPR10 human receptor transfected in CHO cells ([2]; affinity relative to PrRP31): 90% | Displacement of human 125I-PrRP binding ([2]; human GPR10 receptor): nmol·l^−1 range | IPGTT glucose level at end of experiment (420 min) (diabetic db/db mice): significantly lower
